This is an account of results in patent US9981940B2, “Aryl sulfide derivatives and aryl sulfoxide derivatives as acaricides and insecticides” (BAYER CROPSCIENCE AKTIENGESELLSCHAFT, priority 2013, dated 2018).

In one data set the test system is Tetranychus urticae. In words: Tetranychus urticae spray test, OP-resistant (TETRUR). The format is in vivo. The conditions noted are these: after 6 days; for pest or weed control at 500 g/ha: Tetranychus urticae, 144 h, read-out: efficacy. In a few lines:
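Mortality as % efficacy (0% = no mites killed) read 6 days after spraying. Formulation: active ingredient in acetone/dimethylformamide plus emulsifier, diluted with emulsifier-containing water, applied to Phaseolus vulgaris leaf discs carrying every life stage of OP-resistant spider mites.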

Data set [1] is described as follows: log P by HPLC (OECD Guideline 117), method [b] neutral range. The format is physicochemical. The conditions noted are these: HPLC; for logP[b]: method [b] neutral range; for chromatographic logP: reversed-phase C18 HPLC column, neutral range, pH 7.8. The protocol:
(§1) The log P values were determined analogously to OECD Guideline 117 (EC Directive 92/69/EEC) by HPLC (high-performance liquid chromatography) using reversed-phase columns (C 18), by the following methods:
[b] The LC-MS determination in the neutral range is effected at pH 7.8 with 0.001 molar aqueous ammonium hydrogencarbonate solution and acetonitrile as eluents; linear gradient from 10% acetonitrile to 95% acetonitrile.

The nature of data set [2]: log P by HPLC (OECD Guideline 117), method [a] acidic range. The format is physicochemical. The conditions noted are these: for logP[a]: HPLC, method [a] acidic range; for chromatographic logP: reversed-phase C18 HPLC column, acidic range. On the procedure:
as §1
[a] The LC-MS determination in the acidic range is effected at pH 2.7 with 0.1% aqueous formic acid and acetonitrile (contains 0.1% formic acid) as eluents; linear gradient from 10% acetonitrile to 95% acetonitrile.

The mark [3] stands for this setting: pH 2.7, HPLC method [a], read-out: logP[a].
Where [4] appears, read: pH 2.7, HPLC, pH 2.7, read-out: log P[a].

As for `Cc1cc(F)c(-n2ncn(Cc3ccccc3)c2=O)cc1[S+]([O-])CC(F)(F)F` (stereo not shown) [Example 370], the efficacy in the data set with Tetranychus urticae (application rate of 500 g/ha) is 100%. Besides, the “logP[b]” value in data set [1] turned out to be 2.36. The “logP[a]” value in data set [2] came out at 2.35.
For `Cc1cc(F)c(-n2nc(C(C)(C)C)oc2=O)cc1SCC(F)(F)F` [Example 449] the same measures were 90%, 4.25 and 4.30.
For the compound `Cc1cc(F)c(-n2nc(C3CCCC3)n(C3CC3)c2=S)cc1SCC(F)(F)F` [Example 497, 5-Cyclopentyl-4-cyclopropyl-2-{2-fluoro-4-methyl-5-[(2,2,2-trifluoroethyl)sulphanyl]-phenyl}-2,4-dihydro-3H-1,2,4-triazole-3-thione], the pest or weed control at 500 g/ha with Tetranychus urticae (application rate of 500 g/ha) amounted to 90%. For the same compound, the figures for the chromatographic logP in data set [1], in data set [2] (setting [3]) and in data set [2] (setting [4]) were 4.57, 4.68 and 4.68, respectively.
In turn, `CCCOc1nn(-c2cc([S+]([O-])CC(F)(F)F)c(C)cc2F)c(=O)n1CC` (stereo not shown) [Example 408] returned an efficacy in the data set with Tetranychus urticae (application rate of 500 g/ha) of 100%. Further, in data set [1], the “logP[b]” value is recorded as 2.81. Also, the “logP[a]” value in data set [2] amounted to 2.86.
`CCn1ccn(-c2cc(SCC(F)(F)F)c(C)cc2F)c1=O` [Example 486, 1-Ethyl-3-{2-fluoro-4-methyl-5-[(2,2,2-trifluoroethyl)sulphanyl]phenyl}-1,3-dihydro-2H-imidazol-2-one]: the pest or weed control at 500 g/ha with Tetranychus urticae (application rate of 500 g/ha) came out at 100%. For the same compound, the figures for the chromatographic logP in data set [1], in data set [2] (setting [3]) and in data set [2] (setting [4]) were 2.79, 2.84 and 2.84, respectively.
On to `CCCCOc1nn(-c2ccc(C)c(SCC(F)(F)F)c2)c(=O)n1C1CC1` [Example 126], for which, in the data set on Tetranychus urticae (application rate of 500 g/ha), the efficacy came to 90%. For the same compound, in data set [1], the “logP[b]” value worked out at 5.02. Further, the “logP[a]” value in data set [2] was determined as 5.11.
For `CNn1cnn(-c2cc(SCC(F)(F)F)c(C)cc2F)c1=O` [Example 203] the same measures were 100%, 2.27 and 2.32.
For `CCSc1nn(-c2cc([S+]([O-])CC(F)(F)F)c(C)cc2F)c(=O)n1C1CC1` (stereo not shown) [Example 262] the same measures were 100%, 2.76 and 2.81.
For `CCc1nn(-c2cc(SCC(F)(F)F)c(C)cc2F)c(=O)o1` [Example 455] the same measures were 100%, 3.46 and 3.53.
The compound `Cc1cc(F)c(-n2nc(OCC3CC3)n(C)c2=O)cc1SCC(F)(F)F` [Example 143] returned an efficacy with Tetranychus urticae (application rate of 500 g/ha) of 90%. For the same compound, the “logP[b]” value in data set [1] is on record as 3.58. The “logP[a]” value in data set [2] worked out at 3.66.
Consider `CC[S+]([O-])c1nn(-c2cc([S+]([O-])CC(F)(F)F)c(C)cc2F)c(=O)n1C` (stereo not shown) [Example 244, 5-(Ethylsulphinyl)-2-{2-fluoro-4-methyl-5-[(2,2,2-trifluoroethyl)sulphinyl]phenyl}-4-methyl-2,4-dihydro-3H-1,2,4-triazol-3-one], for which, in the data set with Tetranychus urticae (application rate of 500 g/ha), the pest or weed control at 500 g/ha was 100%. For the same compound, the values for the chromatographic logP in data set [1], in data set [2] (setting [3]) and in data set [2] (setting [4]) were 1.65, 1.69 and 1.69, respectively.
In the case of `CCCCn1c(C(F)(F)F)nn(-c2cc([S+]([O-])CC(F)(F)F)c(C)cc2F)c1=O` (stereo not shown) [Example 365], the efficacy in the data set on Tetranychus urticae (application rate of 500 g/ha) amounted to 100%. The “logP[b]” value in data set [1] is 3.54. Further, the “logP[a]” value in data set [2] stood at 3.61.
The matching figures for `O=c1n(-c2cc(SCC(F)(F)F)c(Cl)cc2Cl)nc(OCC(F)(F)F)n1C1CC1` [Example 185]: 90%, 4.10 and 4.14.
The matching figures for `Cc1cc(F)c(-n2nc(C3CC3)n(C3CC3)c2=O)cc1SCC(F)(F)F` [Example 65]: 100%, 3.33 and 3.39.
For `Cc1cc(F)c(-n2nc(N(C)C)n(C3CC3)c2=O)cc1[S+]([O-])CC(F)(F)F` (racemic) [Example 194] the same measures were 100%, 2.12 and 2.17.
As to `Cc1cc(F)c(-n2nc(OCc3ccccc3)n(C3CC3)c2=O)cc1[S+]([O-])CC(F)(F)F` (stereo not shown) [Example 414], in the data set with Tetranychus urticae (application rate of 500 g/ha), the efficacy is 100%. Moreover, the “logP[b]” value in data set [1] came to 3.19. Further, the “logP[a]” value in data set [2] is 3.24.
The matching figures for `Cc1cc(F)c(-n2nc(-c3ccc(Cl)cc3)oc2=O)cc1SCC(F)(F)F` [Example 458]: 100%, 4.78 and 4.85.
With `Cc1cc(F)c(-n2nc(C)n(C3CC3)c2=O)cc1SCC(F)(F)F` [Example 42], the efficacy in the data set on Tetranychus urticae (application rate of 500 g/ha) amounted to 90%. For the same compound, in data set [1], the “logP[b]” value is given as 2.73. Also, the “logP[a]” value in data set [2] was 2.76.
`COCCCn1c(OC)nn(-c2cc(SCC(F)(F)F)c(C)cc2F)c1=O` [Example 388] returned an efficacy in the data set with Tetranychus urticae (application rate of 500 g/ha) of 90%. Further, in data set [1], the “logP[b]” value came out at 3.15. Also, the “logP[a]” value in data set [2] worked out at 3.16.
For `CNn1c(C2CC2)nn(-c2cc([S+]([O-])CC(F)(F)F)c(C)cc2F)c1=O` (stereo not shown) [Example 208] the same measures were 100%, 2.05 and 2.09.
Compound `CCCCc1nn(-c2cc(SCC(F)(F)F)c(C)cc2F)c(=O)o1` [Example 461] yielded an efficacy with Tetranychus urticae (application rate of 500 g/ha) of 90%. Moreover, in data set [1], the “logP[b]” value was determined as 4.33. Besides, the “logP[a]” value in data set [2] turned out to be 4.35.
The compound `Cc1cc(F)c(-n2nc(OCC(C)C)n(C)c2=O)cc1[S+]([O-])CC(F)(F)F` (stereo not shown) [Example 152] showed an efficacy in the data set on Tetranychus urticae (application rate of 500 g/ha) of 90%. For the same compound, the “logP[b]” value in data set [1] is 2.83. Also, in data set [2], the “logP[a]” value came to 2.90.
Turning to `CC(C)(C)COc1nn(-c2cc([S+]([O-])CC(F)(F)F)c(Cl)cc2Cl)c(=O)n1C1CC1` (stereo not shown) [Example 405], in the data set on Tetranychus urticae (application rate of 500 g/ha), the efficacy worked out at 90%. For the same compound, the “logP[b]” value in data set [1] is on record as 4.18. Further, the “logP[a]” value in data set [2] is reported as 4.36.
As to `Cc1nn(-c2cc(SCC(F)(F)F)c(C)cc2F)c(=O)o1` [Example 448, 3-{2-Fluoro-4-methyl-5-[(2,2,2-trifluoroethyl)sulphanyl]phenyl}-5-methyl-1,3,4-oxadiazol-2(3H)-one], the pest or weed control at 500 g/ha in the data set on Tetranychus urticae (application rate of 500 g/ha) was 100%. Moreover, the chromatographic logP in data set [1] is 3.09; in data set [2] (setting [3]), 3.11; in data set [2] (setting [4]), 3.11.
In turn, `COc1ccccc1-c1nn(-c2cc(SCC(F)(F)F)c(C)cc2F)c(=O)n1C1CC1` [Example 366] showed an efficacy in the data set with Tetranychus urticae (application rate of 500 g/ha) of 100%. In addition, the “logP[b]” value in data set [1] was determined as 3.71. For the same compound, in data set [2], the “logP[a]” value came out at 3.77.
Turning to `Cc1cc(F)c(-n2nc(OCc3ccccc3)n(C)c2=O)cc1[S+]([O-])CC(F)(F)F` (stereo not shown) [Example 177], the efficacy in the data set on Tetranychus urticae (application rate of 100 g/ha) stood at 100%. Also, the “logP[b]” value in data set [1] was 2.85. Also, the “logP[a]” value in data set [2] turned out to be 2.92.
`Cc1cc(F)c(-n2nc(C3CCC3)n(C3CC3)c2=O)cc1[S+]([O-])CC(F)(F)F` (racemic) [Example 88] had an efficacy with Tetranychus urticae (application rate of 500 g/ha) of 100%. The “logP[b]” value in data set [1] came out at 2.66. Further, the “logP[a]” value in data set [2] is on record as 2.72.
The compound `Cc1cc(F)c(-n2nc(OCc3ccccc3)n(C3CC3)c2=O)cc1SCC(F)(F)F` [Example 410] returned an efficacy in the data set on Tetranychus urticae (application rate of 500 g/ha) of 100%. Further, the “logP[b]” value in data set [1] was 4.25. Moreover, the “logP[a]” value in data set [2] is 4.32.
